# Test results: PMC12441861, “Next-Generation Lipid Prodrugs Orally Deliver Tenofovir via Enhanced Chylomicron Incorporation” (ACS Pharmacology & Translational Science, 2025)
# How the values were obtained:
# HIV = details: HEK293T cells; ref previous study (Pribut et al. 2021); read-out: IC50 (antiviral activity, previous study); cited from earlier work
# Cytotoxicity, MTT assay = details: human
# [1] = Mouse oral PK and tissue distribution, fasted state; assay type: in vivo; details: for Tmax: male, C57BL/6, mouse, lung, po, 10 mg/kg, tissue not stated; for lung AUC, fasted: overnight fast, final time point 24 h
# Protocol: It is well established that oral absorption and subsequent tissue distribution of lipophilic drugs can be affected by an animal’s fed state. − Food intake serves as a stimulus for CM production in enterocytes, and therefore, variable fed states contribute to differences in prodrug absorption into the lymphatics. […] To evaluate the impact of fasting on drug absorption and distribution, we modified our protocol to include an overnight fast. This mouse PK experiment was performed as above, with the final time point extended to 24 h (instead of 18) for logistical considerations.
# In accordance with the American Chemical Society Guidelines to Publication of Chemical Research, we affirm the use of standard ethical practices when housing and handling research animals, as ensured by the Emory University’s Institutional Animal Care and Use Committee (IACUC) and the Division of Animal Resources (DAR) through a rigorous protocol review, amendment, and approval process. During in vivo experiments, mice were housed in compliance with Emory University’s Division of Animal Resources (DAR) guidelines. For fasting experiments, food was removed the evening before the experiment. Mice had access to water throughout the fasting period. Food was reintroduced 4 h after oral dosing per industry standard protocols. Animals were monitored daily for signs of pain, distress, or adverse events. All procedures were conducted following protocols approved by the Institutional Animal Care and Use Committee (IACUC).
# The compounds TXL, 15a, 15b, 21a, 21b, and a vehicle control were prepared at a concentration of 1 mg/mL in a 90:10 solution of olive oil (Sigma-Aldrich, cat. No. O1514) and 190-proof ethanol. The dosing for each mouse was calculated based on individual body weights to achieve a final dose of 10 mg/kg. For example, a 20 g mouse would receive 200 μL of the 1 mg/mL drug formulation, while a 25 g mouse would receive 250 μL.
# In accordance with the American Chemical Society Guidelines to Publication of Chemical Research, we affirm the use of standard ethical practices when housing and handling research animals, as ensured by the Emory University’s Institutional Animal Care and Use Committee (IACUC) and the Division of Animal Resources (DAR) through a rigorous protocol review, amendment, and approval process. A total of 220 C57BL6/J male mice (aged 11–12 weeks, weight, 22–30 g) were used for these studies. Each mouse was weighed, recorded, and ear-clipped for identification. The dosing for each mouse was calculated based on individual body weights to achieve a final dose of 10 mg/kg. Animals were anesthetized using isoflurane gas before receiving a single dose of drug prepared as described above using a 22-gauge gavage needle attached to a calibrated syringe.
# Time points for tissue collection were 1, 2, 4, 8, and 18 h for unfasted mice, and 1, 2, 4, 8, and 24 h for fasted mice. At each time point, the mice (n = 4 per compound per time point) were anesthetized using isoflurane and subjected to cardiac puncture for blood collection into EDTA-coated tubes. The collected blood samples were immediately placed on ice before the mice were humanely euthanized via cervical dislocation. Brain, liver, lungs, and kidneys were harvested, rinsed in PBS, and placed in prelabeled tubes. Tissues were flash-frozen in liquid nitrogen then transferred to dry ice for storage.
# Tissues were weighed (∼50 mg) into homogenization tubes and ACN containing a 10 μM ITSD was added to achieve a final solvent-to-tissue ratio of 4:1. Homogenization beads were added, and the tissues were processed (Biotage Lysera, part no. 19–060) using two 20 s pulses with a 10 s interval period. Homogenate was centrifuged at maximum speed for 1 h, supernatant collected and analyzed via LC-MS using the method described previously. For plasma samples, a 50 μL aliquot was added 200 μL of ACN containing ITSD. […]
# [2] = Release of parent TFV in mouse tissues after oral prodrug (fed state); details: 10 mg/kg oral prodrug
decrease in lung concentration under fasted conditions ([1]; 10 mg/kg oral),SMILES,IC50 (HIV),"CC50 at 48 h (Cytotoxicity, MTT assay)","Fasted:Fed PK Ratio, liver AUC ([1]; 10 mg/kg oral)","Fasted:Fed PK Ratio, liver Cmax ([1]; 10 mg/kg oral)","Fasted:Fed PK Ratio, lung AUC ([1]; 10 mg/kg oral)","Fasted:Fed PK Ratio, lung Cmax ([1]; 10 mg/kg oral)","Fasted:Fed PK Ratio, plasma AUC ([1]; 10 mg/kg oral)","Fasted:Fed PK Ratio, plasma Cmax ([1]; 10 mg/kg oral)",Tmax [1],"lung AUC, fasted ([1]; 10 mg/kg oral)",increase in lung AUC in fasted versus fed mice ([1]; 10 mg/kg oral),TFV levels (Cmax and AUC) in plasma and liver relative to 21a-treated mice [2]
,"C[C@H](Cn1cnc2c(N)ncnc21)OCP(=O)(O)OCCCOCCCCCCCCCCCCCCCC(F)(F)F [15a, Ammonium[(1R)-2-(6-aminopurin-9-yl)-1-methyl-ethoxy]methyl-[3-(16,16,16-trifluorohexadecoxy)propoxy]phosphinate]",0.05 µM,> 10 µM,,,,,,,,,,
17%,"C[C@H](Cn1cnc2c(N)ncnc21)OCP(=O)(O)OC[C@H](COCCCCCCCCCCCCCCCC(F)(F)F)OCc1ccccc1 [21a, Ammonium[(1R)-2-(6-Aminopurin-9-yl)-1-methyl-ethoxy]methyl-[(2S)-2-benzyloxy-3-(16,16,16-trifluorohexadecoxy)propoxy]phosphinate]",,,0.76,1.6,0.83,0.69,2.4,0.72,1 h,"59,900 h·ng/g",,
,"CCCCCCCCCCCCCCCCOCCCOP(=O)(O)CO[C@H](C)Cn1cnc2c(N)ncnc21 [TXL, hexadecyloxypropyl (HDP)-TFV, reference compound]",,> 10 µM,0.64,1.5,2.1,2.2,1.9,1.4,4 h,"15,600 h·ng/g",2 fold,higher levels of TFV
